Measurements as given in PMC12749748, “Chemically-induced degradation of the endoplasmic-reticulum stress sensor IRE1 by a VHL-recruiting chimera” (Nature Communications, 2025).

Tests used:
Type in all cases: cell-based
IRE1 = IRE1 (Homo sapiens, UniProt O75460); experiment: Immunoblot of endogenous IRE1 depletion in KMS27 cells; parameters: Immunoblot (IB) analysis of endogenous IRE1 depletion in AMO1 cells; endogenous in cells; host or cells: AMO1, KMS27, H929
Method: Cells were lysed in buffer containing 20 mM HEPES 7.2, 150 mM NaCl, and 1% Triton X-100, supplemented with fresh protease and phosphatase inhibitors (Invitrogen, #78440), cleared by centrifugation at 12,000 × g for 10 min, and analyzed by BCA protein assay (Thermo Fisher Scientific, #23227). Equal protein amounts were loaded, separated by SDS-PAGE, electrotransferred to nitrocellulose membranes using the iBLOT2 system (Invitrogen), and blocked in 5% nonfat milk solution for 60 min. Membranes were probed with primary antibodies at 1:1000 dilution in 5% milk at 4 °C overnight. Signal was detected using appropriate horseradish peroxidase (HRP)-conjugated secondary antibodies at 1:10,000 in 5% milk at room temperature for 1–2 h. Bands were visualized by the Azure 600 western blot imaging system (Azure Biosystems). For in vitro ubiquitination assays performed with Me-Ub, bands were visualized by the Odyssey CLx Imager (LI‑COR) after incubating the blots with the IRDye 800CW (LI-COR) secondary antibodies at 1:10,000 in Intercept Blocking Buffer (LI-COR) at room temperature for 1–2 h.

KMS27 cells = experiment: Incucyte cell confluency, KMS27 cells; settings: KMS27 shIRE1 cells, titration
Method: (§1) For non-adherent AMO1, KMS27, and OPM2 cells, cells were plated at 5000 cells/well in ultra-low attachment (ULA) 96-well plates (Costar, #7007) and centrifuged at 600 × g for 5 min for spheroid formation. For adherent U2OS and Colo201 cells, 2000 cells/well were seeded in a clear flat-bottom 96-well plate (Costar, #3595). Treatments were added at the time of cell seeding, and cells were cultured in complete RPMI media to a final volume of 200 µL/well. Cultures were maintained at 37 °C throughout the duration of the experiment. Cell confluency was tracked using the Incucyte live-cell imaging system (Sartorius S3). Picture frames were captured every 4 h with a 4× objective, and cell confluency (%) from the total well area as a function of time was calculated using the Incucyte software (version 2023 A Rev2).

MELK = molecular target: T1, MELK (Homo sapiens, UniProt Q14680); experiment: Immunoblot of MELK depletion in AMO1 cells; settings: additional replicates
T1 construct: endogenous in cells; host or cells: AMO1
Method: Cells were lysed in buffer containing 20 mM HEPES 7.2, 150 mM NaCl, and 1% Triton X-100, supplemented with fresh protease and phosphatase inhibitors (Invitrogen, #78440), cleared by centrifugation at 12,000 × g for 10 min, and analyzed by BCA protein assay (Thermo Fisher Scientific, #23227). Equal protein amounts were loaded, separated by SDS-PAGE, electrotransferred to nitrocellulose membranes using the iBLOT2 system (Invitrogen), and blocked in 5% nonfat milk solution for 60 min. Membranes were probed with primary antibodies at 1:1000 dilution in 5% milk at 4 °C overnight. Signal was detected using appropriate horseradish peroxidase (HRP)-conjugated secondary antibodies at 1:10,000 in 5% milk at room temperature for 1–2 h. Bands were visualized by the Azure 600 western blot imaging system (Azure Biosystems). For in vitro ubiquitination assays performed with Me-Ub, bands were visualized by the Odyssey CLx Imager (LI‑COR) after incubating the blots with the IRDye 800CW (LI-COR) secondary antibodies at 1:10,000 in Intercept Blocking Buffer (LI-COR) at room temperature for 1–2 h. […]
The kinome selectivity of G6374 was assessed at 1 μM for 1 h versus a panel of 220 human kinases (SelectScreen Kinase Profiling Services, Thermo Fisher Scientific). […]

IRE1 H579A = molecular target: T2, IRE1 H579A (Homo sapiens, UniProt O75460+P40337, H579A); experiment: NanoLuc signal IRE1 depletion, IRE1 H579A, HEK293T cells; settings: HEK-293T
T2 construct: N2731; host or cells: HEK293T
Method: 8 × 10^5 293T cells per well were seeded in 6-well plates (Costar, #3516) and incubated at 37 °C, 5% CO2 for 6 h. A mixture of 0.2 µg ERN1 (IRE1)-NanoLuc Fusion Vector (Promega, NV1321), 2 µg HaloTag-VHL Fusion Vector (Promega, N2731), 6 µl FuGENE HD Transfection Reagent (Promega, E2311), and 100 µL Opti-MEM I reduced serum medium (Gibco, #31985062) per well was incubated at room temperature for 20 min before adding to cells. For expression of IRE1 mutants, site-directed mutagenesis was performed using the ERN1-NanoLuc Fusion Vector as the DNA template, and the transfection mixture was prepared in the same way as WT IRE1. After 18 h, cells from 6-well plates were trypsinized, resuspended in Opti-MEM I reduced serum medium, and reseeded into 96-well plates (Costar, #3917), with or without the addition of HaloTag NanoBRET 618 Ligand (Promega, G9801). After 18 h of incubation, a titration of G6374 (dilutions made in Opti-MEM I reduced serum medium) was added to the cells. After 2 h of G6374 treatment, NanoBRET Nano-Glo Substrate (Promega, N1571) was added to cells. The 96-well plates were imaged by GloMax Discover Microplate Reader (Promega, GM3000) with the default “BRET: NanoBRET 618” protocol (Donor: 450 BP; Acceptor: 600 LP; Integration: 0.3 s). Data analysis was performed according to the user manual.

U2OS cells = experiment: Incucyte cell confluency, U2OS cells; settings: U2OS shIRE1 cells, titration
Method: as §1

Sequence of IRE1 (O75460 19-977): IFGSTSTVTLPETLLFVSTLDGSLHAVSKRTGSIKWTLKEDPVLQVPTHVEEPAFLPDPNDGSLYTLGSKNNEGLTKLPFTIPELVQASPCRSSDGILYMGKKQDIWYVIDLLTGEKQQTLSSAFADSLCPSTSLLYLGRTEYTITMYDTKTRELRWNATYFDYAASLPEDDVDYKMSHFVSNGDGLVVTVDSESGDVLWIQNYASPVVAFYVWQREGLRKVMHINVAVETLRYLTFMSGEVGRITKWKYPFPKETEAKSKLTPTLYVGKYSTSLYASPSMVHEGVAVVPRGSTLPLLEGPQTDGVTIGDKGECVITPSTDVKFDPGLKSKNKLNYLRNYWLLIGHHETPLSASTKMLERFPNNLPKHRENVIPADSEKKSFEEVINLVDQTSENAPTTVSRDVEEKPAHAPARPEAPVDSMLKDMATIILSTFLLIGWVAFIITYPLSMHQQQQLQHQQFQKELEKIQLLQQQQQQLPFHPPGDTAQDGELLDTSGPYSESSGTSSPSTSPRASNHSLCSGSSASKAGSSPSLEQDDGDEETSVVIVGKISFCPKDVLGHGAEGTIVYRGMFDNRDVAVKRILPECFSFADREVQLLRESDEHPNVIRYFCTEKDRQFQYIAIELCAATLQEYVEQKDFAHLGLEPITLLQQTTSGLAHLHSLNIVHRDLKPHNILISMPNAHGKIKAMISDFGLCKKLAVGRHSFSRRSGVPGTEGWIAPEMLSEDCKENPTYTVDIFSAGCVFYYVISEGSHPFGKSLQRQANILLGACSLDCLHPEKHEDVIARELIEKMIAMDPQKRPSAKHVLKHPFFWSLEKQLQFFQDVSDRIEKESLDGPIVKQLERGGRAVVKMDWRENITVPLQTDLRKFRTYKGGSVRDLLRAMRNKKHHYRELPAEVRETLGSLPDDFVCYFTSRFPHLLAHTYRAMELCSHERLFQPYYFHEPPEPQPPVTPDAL
T1 sequence (Q14680 whole entry): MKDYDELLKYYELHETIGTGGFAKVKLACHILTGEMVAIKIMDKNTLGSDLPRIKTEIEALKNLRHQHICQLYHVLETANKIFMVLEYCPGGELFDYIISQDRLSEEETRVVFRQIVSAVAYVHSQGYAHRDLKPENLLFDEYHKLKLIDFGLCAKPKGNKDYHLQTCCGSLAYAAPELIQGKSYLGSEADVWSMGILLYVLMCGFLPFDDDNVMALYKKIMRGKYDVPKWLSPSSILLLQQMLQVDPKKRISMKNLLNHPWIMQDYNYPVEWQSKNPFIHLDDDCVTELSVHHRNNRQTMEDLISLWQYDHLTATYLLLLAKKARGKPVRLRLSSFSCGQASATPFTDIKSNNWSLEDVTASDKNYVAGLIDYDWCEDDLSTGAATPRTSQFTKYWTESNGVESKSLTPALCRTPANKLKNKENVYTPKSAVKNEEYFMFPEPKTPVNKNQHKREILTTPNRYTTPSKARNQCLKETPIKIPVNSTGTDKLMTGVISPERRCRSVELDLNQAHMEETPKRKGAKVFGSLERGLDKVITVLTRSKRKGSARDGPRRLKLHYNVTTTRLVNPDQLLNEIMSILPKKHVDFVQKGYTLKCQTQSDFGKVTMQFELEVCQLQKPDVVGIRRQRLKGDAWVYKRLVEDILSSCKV
T2 sequence (O75460 19-977 H579A): as the sequence (O75460 19-977) above, with H561A counted along it
T2 sequence (P40337 whole entry): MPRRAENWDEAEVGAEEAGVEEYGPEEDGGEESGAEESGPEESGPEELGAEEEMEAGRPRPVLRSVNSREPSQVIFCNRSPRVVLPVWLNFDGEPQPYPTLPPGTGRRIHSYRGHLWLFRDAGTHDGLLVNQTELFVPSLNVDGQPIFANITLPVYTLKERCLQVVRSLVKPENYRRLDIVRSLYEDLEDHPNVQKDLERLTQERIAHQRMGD
T2 sequence (Q15369 whole entry partner): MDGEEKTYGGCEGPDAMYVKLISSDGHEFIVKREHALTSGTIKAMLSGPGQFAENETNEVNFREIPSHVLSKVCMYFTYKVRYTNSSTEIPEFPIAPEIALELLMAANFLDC
T2 sequence (Q15370 whole entry partner): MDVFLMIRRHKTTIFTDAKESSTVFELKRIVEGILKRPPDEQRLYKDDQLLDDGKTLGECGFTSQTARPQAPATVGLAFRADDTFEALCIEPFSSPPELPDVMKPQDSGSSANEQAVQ
T2 sequence (Q13617 whole entry partner): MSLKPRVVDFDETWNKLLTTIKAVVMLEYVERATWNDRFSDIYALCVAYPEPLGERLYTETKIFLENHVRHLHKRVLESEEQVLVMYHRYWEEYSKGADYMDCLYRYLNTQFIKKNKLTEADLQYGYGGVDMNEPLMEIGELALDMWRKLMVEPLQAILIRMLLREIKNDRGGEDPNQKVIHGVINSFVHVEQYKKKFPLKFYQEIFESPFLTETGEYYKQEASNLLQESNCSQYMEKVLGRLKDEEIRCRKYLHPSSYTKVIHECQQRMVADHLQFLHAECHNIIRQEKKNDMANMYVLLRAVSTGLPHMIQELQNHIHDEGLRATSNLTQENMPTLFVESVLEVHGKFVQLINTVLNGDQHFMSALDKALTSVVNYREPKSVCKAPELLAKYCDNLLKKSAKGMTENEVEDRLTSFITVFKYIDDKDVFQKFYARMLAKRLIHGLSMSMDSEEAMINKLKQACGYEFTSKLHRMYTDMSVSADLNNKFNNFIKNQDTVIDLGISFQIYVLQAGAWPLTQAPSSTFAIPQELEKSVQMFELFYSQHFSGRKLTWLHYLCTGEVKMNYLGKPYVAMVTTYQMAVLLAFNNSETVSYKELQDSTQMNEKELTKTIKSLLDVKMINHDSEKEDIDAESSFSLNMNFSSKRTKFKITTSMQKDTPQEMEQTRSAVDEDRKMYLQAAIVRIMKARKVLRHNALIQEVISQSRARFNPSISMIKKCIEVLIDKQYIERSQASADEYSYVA
T2 sequence (P62877 whole entry partner): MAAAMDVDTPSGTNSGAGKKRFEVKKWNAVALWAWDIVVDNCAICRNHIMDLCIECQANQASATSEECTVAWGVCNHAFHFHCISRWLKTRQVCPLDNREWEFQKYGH

Cc1ncsc1-c1ccc(CNC(=O)[C@@H]2C[C@@H](O)CN2C(=O)[C@@H](NC(=O)CCCCN2CCN([C@H]3CC[C@H](Nc4ncc5ccc(=O)n(C(C)C)c5n4)CC3)CC2)C(C)(C)C)cc1 [G6374]
Dmax (IRE1; KMS-27, immunoblot quantification): 98% | DC50 (IRE1; immunoblot quantification): 130 nM | growth inhibition (cell confluency) (KMS27 cells): concentration-dependent growth inhibition | depletion of MELK (MELK): MELK is not depleted | Dmax (IRE1 H579A): 27% | proliferation rate (cell confluency) (U2OS cells): did not affect the proliferation rate
